Test results published in PubChem BioAssay (NCI).
Several values for one entry are separate records, joined by “and”; a condition that tells them apart may be missing. Equal values may be shown once.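 These data come from cells grown in 96-well plates and exposed to compound for 48 hours at five concentrations. Abbreviation: GI50, concentration required for 50% inhibition of growth. TGI marks complete inhibition of growth.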

Tests used:
Assay in all cases: DTP human tumour cell line panel, 48 h
DU-145 prostate = system: DU-145 prostate
MALME-3M melanoma = system: MALME-3M melanoma
M14 melanoma = system: M14 melanoma
OVCAR-4 ovarian = system: OVCAR-4 ovarian
NCI/ADR-RES ovarian = system: NCI/ADR-RES ovarian
UO-31 renal = system: UO-31 renal
CAKI-1 renal = system: CAKI-1 renal
SK-MEL-5 melanoma = system: SK-MEL-5 melanoma
MDA-N = system: MDA-N
HOP-62 NSCLC = system: HOP-62 NSCLC
IGROV1 ovarian = system: IGROV1 ovarian
PC-3 prostate = system: PC-3 prostate
K-562 leukemia = system: K-562 leukemia
U251 CNS = system: U251 CNS
HCT-116 colon = system: HCT-116 colon
SF-539 CNS = system: SF-539 CNS
RPMI-8226 leukemia = system: RPMI-8226 leukemia
HS 578T breast = system: HS 578T breast
MDA-MB-435 = system: MDA-MB-435

SMILES | TGI (DU-145 prostate) [µM] | TGI (MALME-3M melanoma) [µM] | TGI (M14 melanoma) [µM] | TGI (OVCAR-4 ovarian) [µM] | TGI (NCI/ADR-RES ovarian) [µM] | TGI (UO-31 renal) [µM] | TGI (CAKI-1 renal) [µM] | TGI (SK-MEL-5 melanoma) [µM] | TGI (MDA-N) [µM] | TGI (HOP-62 NSCLC) [µM] | TGI (IGROV1 ovarian) [µM] | TGI (PC-3 prostate) [µM] | TGI (K-562 leukemia) [µM] | TGI (U251 CNS) [µM] | TGI (HCT-116 colon) [µM] | TGI (SF-539 CNS) [µM] | TGI (RPMI-8226 leukemia) [µM] | TGI (HS 578T breast) [µM] | TGI (MDA-MB-435) [µM] | GI50 (U251 CNS)
ClCCCC1COc2ccccc2O1 (stereo not drawn) | > 100 | > 100 | > 100 | > 100 | > 100 | > 100 | > 100 | > 100 | > 100 | > 100 | > 100 | > 100 | > 100 | > 100 | > 100 | > 100 | – | – | – | –
CCN1C(=O)C(N=[N+]=[N-])(c2ccccc2)C(=O)c2ccccc21 (stereo not drawn) | – | > 100 | > 100 | > 100 | – | > 100 | > 100 | > 100 | – | > 100 | > 100 | – | > 100 | > 100 | > 100 | > 100 | > 100 | – | – | –
CC(=O)NC(CCCOC(C)=O)C(=O)NC(CCCOC(C)=O)C(=O)NC(CCCOC(C)=O)C(=O)NC(Cc1ccc([N+](=O)[O-])cc1)C(=O)NCC(=O)OCc1ccccc1 (stereo not drawn) | > 100 | > 100 | > 100 | > 100 | > 100 | > 100 | > 100 | > 100 | – | > 100 | > 100 | > 100 | > 100 | > 100 | > 100 | > 100 | > 100 | > 100 | > 100 | –
O=C1NCC2(CCNCC2)N1 | > 100 | > 100 | > 100 | > 100 | > 100 | > 100 | – | > 100 | – | > 100 | > 100 | – | – | > 100 | > 100 | > 100 | > 100 | > 100 | > 100 | –
COC(=O)C(CCSc1ccccc1)C(=O)OC | – | > 100 | > 100 | > 100 | > 100 | > 100 | > 100 | > 100 | > 100 | > 100 | > 100 | > 100 | – | > 100 | > 100 | > 100 | > 100 | > 100 | > 100 | –
Nc1ccn(CC(CO)CC(c2ccccc2)P(=O)(O)O)c(=O)n1 (stereo not drawn) | – | > 100 | > 100 | – | – | > 100 | > 100 | > 100 | – | > 100 | > 100 | – | > 100 | > 100 | > 100 | > 100 | > 100 | – | – | 28.2 µM and > 100 µM
C=CCOCn1ccc(NC(=O)c2ccccc2)nc1=O | > 100 | > 100 | > 100 | – | – | > 100 | > 100 | > 100 | > 100 | > 100 | > 100 | > 100 | > 100 | – | > 100 | > 100 | > 100 | > 100 | > 100 | –
